# Results taken from US8188139B2, “Heterocyclic-substituted phenyl methanones” (Hoffman-La Roche Inc., priority 2005, dated 2012).
# Target: T1, mGlyT-1b (Mus musculus, UniProt P28571)
# T1 construct: host or cells: Flp-in-CHO
# T1 sequence (P28571 1-651 isoform P28571-2): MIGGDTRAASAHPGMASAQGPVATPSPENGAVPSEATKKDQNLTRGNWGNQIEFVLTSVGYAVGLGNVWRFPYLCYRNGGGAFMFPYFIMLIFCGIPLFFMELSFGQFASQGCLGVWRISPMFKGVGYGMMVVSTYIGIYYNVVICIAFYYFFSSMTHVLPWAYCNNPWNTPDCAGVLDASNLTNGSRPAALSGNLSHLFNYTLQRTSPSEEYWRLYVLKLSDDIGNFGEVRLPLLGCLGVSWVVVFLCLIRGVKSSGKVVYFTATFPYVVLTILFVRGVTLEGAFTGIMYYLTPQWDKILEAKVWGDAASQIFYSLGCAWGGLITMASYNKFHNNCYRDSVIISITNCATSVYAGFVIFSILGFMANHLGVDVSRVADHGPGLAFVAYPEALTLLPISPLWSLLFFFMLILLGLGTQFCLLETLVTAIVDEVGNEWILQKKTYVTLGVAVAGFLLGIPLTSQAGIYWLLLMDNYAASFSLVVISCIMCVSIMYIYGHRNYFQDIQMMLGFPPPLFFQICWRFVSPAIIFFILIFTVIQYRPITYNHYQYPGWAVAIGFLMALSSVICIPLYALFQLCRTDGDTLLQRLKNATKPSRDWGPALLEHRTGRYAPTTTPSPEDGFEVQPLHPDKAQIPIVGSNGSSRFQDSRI
# Experiment: Glycine uptake inhibition assay (mGlyT-1b)
# Assay type: cell-based
# Settings: inhibition of [3H]-glycine uptake in Flp-in-CHO cells transfected with mGlyT-1b cDNA; 20 min preincubation at 22° C.; read-out: IC50 (μM) at GlyT-1
# Procedure: DMEM complete medium: Nutrient mixture F-12 (Gibco Life-technologies), fetal bovine serum (FBS) 5%, (Gibco life technologies), Penicillin/Streptomycin1% (Gibco life technologies), Hygromycin 0.6 mg/ml (Gibco life technologies), Glutamine 1 mM Gibco life technologies)
# Uptake buffer (UB): 150 mM NaCl, 10 mM Hepes-Tris, pH 7.4, 1 mM CaCl2, 2.5 mM KCl, 2.5 mM MgSO4, 10 mM (+) D-glucose.
# Flp-in™-CHO (Invitrogen Cat n^o R758-07) cells stably transfected with mGlyT1b cDNA.
# Glycine Uptake Inhibition Assay (mGlyT-1b)
# On day 1 mammalian cells, (Flp-in™-CHO), transfected with mGlyT-1b cDNA, were plated at the density of 40,000 cells/well in complete F-12 medium, without hygromycin in 96-well culture plates. On day 2, the medium was aspirated, and the cells were washed twice with uptake buffer (UB). The cells were then incubated for 20 min at 22° C. with either (i) no potential competitor, (ii) 10 mM non-radioactive glycine, (iii) a concentration of a potential inhibitor. A range of concentrations of the potential inhibitor was used to generate data for calculating the concentration of inhibitor resulting in 50% of the effect (e.g. IC50, the concentration of the competitor inhibiting glycine uptake of 50%). A solution was then immediately added containing [^3H]-glycine 60 nM (11-16 Ci/mmol) and 25 μM non-radioactive glycine. The plates were incubated with gentle shaking, and the reaction was stopped by aspiration of the mixture and washing (three times) with ice-cold UB. The cells were lysed with scintillation liquid, shaken 3 hours, and the radioactivity in the cells was counted using a scintillation counter.
row,SMILES,IC50 [µM]
1,"CC(C)COc1ccc(S(C)(=O)=O)cc1C(=O)N1Cc2cc(Cl)c(N3CCOCC3)cc2C1 [Example 248, (5-Chloro-6-morpho-lin-4-yl-1,3-dihydro-isoindol-2-yl)-(2-isobutoxy-5-methanesulfonyl-phenyl)-methanone]",0.026
2,"CS(=O)(=O)c1ccc(-c2ccccc2)c(C(=O)N2Cc3cc(Cl)c(N4CCOCC4)cc3C2)c1 [Example 252, (5-Chloro-6-morpho-lin-4-yl-1,3-dihydro-isoindol-2-yl)-(4-methanesulfonyl-biphenyl-2-yl)-methanone]",0.033
3,"CS(=O)(=O)c1ccc(-c2ccc(F)cc2)c(C(=O)N2Cc3cc(Cl)c(N4CCOCC4)cc3C2)c1 [Example 256, (5-Chloro-6-morpho-lin-4-yl-1,3-dihydro-isoindol-2-yl)-(4′-fluoro-4-methane-sulfonyl-biphenyl-2-yl)-methanone]",0.032
4,"CC(C)COc1ccc(S(C)(=O)=O)cc1C(=O)N1Cc2ccc(C3CCOCC3)cc2C1 [Example 270, (2-Isobutoxy-5-methanesulfonyl-phenyl)-[5-(tetrahydro-pyran-4-yl)-1,3-dihydro-isoindol-2-yl]-methanone]",0.035
5,"CS(=O)(=O)c1ccc(OCC2CCC2)c(C(=O)N2Cc3ccc(C4CCOCC4)cc3C2)c1 [Example 272, (2-Cyclobutyl-methoxy-5-methane-sulfonyl-phenyl)-[5-(tetrahydro-pyran-4-yl)-1,3-dihydro-isoindol-2-yl]-methanone]",0.034
6,"CC(C)(C)COc1ccc(S(C)(=O)=O)cc1C(=O)N1Cc2ccc(C3CCOCC3)cc2C1 [Example 273, [2-(2,2-Dimethyl-propoxy)-5-methane-sulfonyl-phenyl]-[5-(tetrahydro-pyran-4-yl)-1,3-dihydro-isoindol-2-yl]-methanone]",0.047
7,"C[C@H](Oc1ccc(S(C)(=O)=O)cc1C(=O)N1Cc2ccc(N3CCCC(F)(F)C3)cc2C1)C(F)(F)F [Example 287, [5-(3,3-Difluoro-piperidin-1-yl)-1,3-dihydro-isoindol-2-yl]-[5-methanesulfonyl-2-((S)-2,2,2-trifluoro-1-methyl-ethoxy)-phenyl]-methanone]",0.043
8,"C[C@H](Oc1ccc(S(C)(=O)=O)cc1C(=O)N1Cc2ccc(N3[C@@H]4CC[C@H]3COC4)cc2C1)C(F)(F)F [Example 295, [5-Methanesulfonyl-2-((S)-2,2,2-trifluoro-1-methyl-ethoxy)-phenyl]-[(1R,5S)-5-(3-oxa-8-aza-bicyclo[3.2.1]oct-8-yl)-1,3-dihydro-isoindol-2-yl]-methanone]",0.04
9,"C[C@H](Oc1ccc(S(C)(=O)=O)cc1C(=O)N1Cc2cc(Cl)c(C3CCOCC3)cc2C1)C(F)(F)F [Example 305, [5-Chloro-6-(tetra-hydro-pyran-4-yl)-1,3-dihydro-isoindol-2-yl]-[5-methane-sulfonyl-2-((S)-2,2,2-trifluoro-1-methyl-ethoxy)-phenyl]-methanone]",0.037
10,"CCc1cc2c(cc1C1CCOCC1)CN(C(=O)c1cc(S(C)(=O)=O)ccc1O[C@@H](C)C(F)(F)F)C2 [Example 306, [5-Ethyl-6-(tetrahydro-pyran-4-yl)-1,3-dihydro-isoindol-2-yl]-[5-methanesulfonyl-2-((S)-2,2,2-trifluoro-1-methyl-ethoxy)-phenyl]-methanone]",0.087
11,"C[C@H](Oc1ccc(S(C)(=O)=O)cc1C(=O)N1Cc2cnc(-c3ccc(F)cc3)cc2C1)C(F)(F)F [Example 321, [6-(4-Fluoro-phenyl)-1,3-dihydro-pyrrolo[3,4-c]pyridin-2-yl]-[5-methanesulfonyl-2-((S)-2,2,2-trifluoro-1-methyl-ethoxy)-phenyl]-methanone]",0.034
12,"C[C@H](Oc1ccc(S(C)(=O)=O)cc1C(=O)N1Cc2ccc(-c3ccccc3Cl)cc2C1)C(F)(F)F [Example 324, [5-(2-Chloro-phenyl)-1,3-dihydro-isoindol-2-yl]-[5-methanesulfonyl-2-(2,2,2-trifluoro-1-methyl-ethoxy)-phenyl]-methanone]",0.045

# Other lines, results leading:
row,IC50 [µM],SMILES
1,0.022,"CS(=O)(=O)c1ccc(OCC2CCC2)c(C(=O)N2Cc3cc(Cl)c(N4CCOCC4)cc3C2)c1 [Example 249, (5-Chloro-6-morpho-lin-4-yl-1,3-dihydro-isoindol-2-yl)-(2-cyclobutylmethoxy-5-methanesulfonyl-phenyl)-methanone]"
2,0.017,"CS(=O)(=O)c1ccc(-c2cccc(F)c2)c(C(=O)N2Cc3cc(Cl)c(N4CCOCC4)cc3C2)c1 [Example 255, (5-Chloro-6-morpho-lin-4-yl-1,3-dihydro-isoindol-2-yl)-(3′-fluoro-4-methane-sulfonyl-biphenyl-2-yl)-methanone]"
3,0.028,"CC(C)Oc1ccc(S(C)(=O)=O)cc1C(=O)N1Cc2ccc(C3CCOCC3)cc2C1 [Example 268, (2-Isopropoxy-5-methanesulfonyl-phenyl)-[5-(tetrahydro-pyran-4-yl)-1,3-dihydro-isoindol-2-yl]-methanone]"
4,0.014,"C[C@H](Oc1ccc(S(C)(=O)=O)cc1C(=O)N1Cc2ccc(C3CCOCC3)cc2C1)C(F)(F)F [Example 269, [5-Methanesulfonyl-2-((S)-2,2,2-trifluoro-1-methyl-ethoxy)-phenyl]-[5-(tetrahydro-pyran-4-yl)-1,3-dihydro-isoindol-2-yl]-methanone]"
5,0.029,"CS(=O)(=O)c1ccc(OCC2CC2)c(C(=O)N2Cc3ccc(C4CCOCC4)cc3C2)c1 [Example 271, (2-Cyclopropyl-methoxy-5-methane-sulfonyl-phenyl)-[5-(tetrahydro-pyran-4-yl)-1,3-dihydro-isoindol-2-yl]-methanone]"
6,0.016,"CS(=O)(=O)c1ccc(-c2ccc(F)cc2)c(C(=O)N2Cc3ccc(C4CCOCC4)cc3C2)c1 [Example 283, (4′-Fluoro-4-methanesulfonyl-biphenyl-2-yl)-[5-(tetrahydro-pyran-4-yl)-1,3-dihydro-isoindol-2-yl]-methanone]"
7,0.022,"C[C@H](Oc1ccc(S(C)(=O)=O)cc1C(=O)N1Cc2ccc(CC(F)(F)F)cc2C1)C(F)(F)F [Example 290, [5-Methanesulfonyl-2-((S)-2,2,2-trifluoro-1-methyl-ethoxy)-phenyl]-[5-(2,2,2-tri-fluoro-ethyl)-1,3-dihydro-isoindol-2-yl]-methanone]"
8,0.017,Cc1cc2c(cc1C1CCOCC1)CN(C(=O)c1cc(S(C)(=O)=O)ccc1O[C@@H](C)C(F)(F)F)C2 [Example 300]
9,0.008,"C[C@H](Oc1ccc(S(C)(=O)=O)cc1C(=O)N1Cc2ccc(C3CCOC3)cc2C1)C(F)(F)F (stereo partly drawn) [Example 304, [5-Methanesulfonyl-2-((S)-2,2,2-trifluoro-1-methyl-ethoxy)-phenyl]-[5-(tetra-hydro-furan-3-yl)-1,3-dihydro-isoindol-2-yl]-methanone]"
10,0.017,"C[C@H](Oc1ccc(S(C)(=O)=O)cc1C(=O)N1Cc2ccc(-c3ccncc3)cc2C1)C(F)(F)F [Example 315, [5-Methanesulfonyl-2-((S)-2,2,2-trifluoro-1-methyl-ethoxy)-phenyl]-(5-pyridin-4-yl-1,3-dihydro-isoindol-2-yl)-methanone]"
11,0.024,C[C@H](Oc1ccc(S(C)(=O)=O)cc1C(=O)N1Cc2ccc(-c3cccnc3)cc2C1)C(F)(F)F [Example 317]
12,0.012,"C[C@H](Oc1ccc(S(C)(=O)=O)cc1C(=O)N1Cc2cc(-c3ccc(F)cc3)cnc2C1)C(F)(F)F [Example 322, [3-(4-Fluoro-phenyl)-5,7-dihydro-pyrrolo[3,4-b]pyridin-6-yl]-[5-methanesulfonyl-2-((S)-2,2,2-trifluoro-1-methyl-ethoxy)-phenyl]-methanone]"
13,0.013,"C[C@H](Oc1ccc(S(C)(=O)=O)cc1C(=O)N1Cc2ccc(-c3ccccc3)cc2C1)C(F)(F)F [Example 323, [5-Methanesulfonyl-2-((S)-2,2,2-trifluoro-1-methyl-ethoxy)-phenyl]-(5-phenyl-1,3-dihydro-isoindol-2-yl)-methanone]"
